Source: paper PMC8522752 (Antimicrobial Agents and Chemotherapy, 2021)
Read-outs that look alike come from different tables or passages of the source.

Experiments:
Dengue-2 New Guinea C [1] = experiment: microbe, parasite or virus in culture; type: cell-based; conditions: Huh-7, VYR assay, read-out: EC90 (reduce virus yield by 1 log10) (converted)
Usutu virus TC-508 [2] = experiment: microbe, parasite or virus in culture; type: cell-based; conditions: Usutu TC-508, Huh-7, VYR assay, read-out: EC90 (reduce virus yield by 1 log10) (converted)
[3] = Plasma pharmacokinetics in Sprague Dawley rats after oral AT-752; conditions: rat, oral AT-752 300 mg/kg, earliest time point measured
[4] = tested on: Yellow Fever virus YFV 17D; experiment: microbe, parasite or virus in culture; type: cell-based; conditions: Huh-7, read-out: EC90 (reduce virus yield by 1 log10) (converted)
in vitro [5] = conditions: human, hamster
Dengue-3 H87 = experiment: Neutral red CPE inhibition assay, Dengue-3 H87 in Huh-7; type: cell-based; conditions: Dengue virus; Dengue-3 H87, Huh-7, neutral red assay; read-out: EC50 (inhibition of virus-induced CPE)
[6] = tested on: Yellow Fever virus YFV 17D; experiment: microbe, parasite or virus in culture; type: cell-based; conditions: Huh-7, read-out: EC50 (inhibition of virus-induced CPE)
[7] = Cytotoxicity in uninfected BHK-21 cells (MTT, DENV2 study); type: cell-based; conditions: hamster, BHK-21 without virus, Dengue-2 clinical isolate study, bound = highest concentration tested
Rhinovirus = experiment: Antiviral specificity panel, Rhinovirus in H1-HeLa; type: cell-based; conditions: Enterovirus, Rhinovirus (RNA), read-out: EC50 (inhibit viral replication 50%)
[8] = Cardiomyocyte assay (CellTiter Glo); type: cell-based; conditions: human iPS cardiomyocytes
Rift Valley fever virus = experiment: microbe, parasite or virus in culture; type: cell-based; conditions: Huh-7, read-out: EC50 (inhibit viral replication 50%)
Usutu virus TC-508 [9] = experiment: Neutral red CPE inhibition assay, Usutu TC-508 in Huh-7; type: cell-based; conditions: Huh-7, read-out: EC50 (inhibition of virus-induced CPE)
[10] = tested on: West Nile virus Kern 515, WNo2; experiment: Neutral red CPE inhibition assay, West Nile virus in Huh-7; type: cell-based; conditions: West Nile Kern 515, WNo2, Huh-7, neutral red assay, read-out: EC50 (inhibition of virus-induced CPE)
in vivo [11] = conditions: male, cynomolgus, cynomolgus monkey, po, 300 mg/kg
HIV-1 = experiment: Antiviral specificity panel, HIV-1 in CEM-SS; type: cell-based; conditions: Human immunodeficiency virus 1, HIV-1 (RNA), read-out: EC50 (inhibit viral replication 50%)
Powassan virus LB [12] = experiment: microbe, parasite or virus in culture; type: cell-based; conditions: BHK-21, read-out: EC90 (reduce virus yield by 1 log10) (converted)
Influenza A and B = experiment: Antiviral specificity panel, Influenza A and B in MDCK; type: cell-based; conditions: Influenza A virus, Influenza A and B (RNA), read-out: EC50 (inhibit viral replication 50%)
[13] = tested on: Eastern equine encephalitis virus; experiment: microbe, parasite or virus in culture; type: cell-based; conditions: Huh-7, read-out: EC50 (inhibit viral replication 50%)
[14] = Plasma pharmacokinetics in cynomolgus monkeys after oral AT-752; conditions: monkeys, oral AT-752 300 mg/kg
Chikungunya virus = experiment: Antiviral specificity panel, Chikungunya in Huh-7; type: cell-based; conditions: Chikungunya (RNA), read-out: EC50 (inhibit viral replication 50%)
flaviviruses [15] = tested on: flaviviruses
in vitro [16] = conditions: African green monkey
in vivo [17] = conditions: male, CD-1, mouse, po, 420 mg/kg
Zika virus MR766 = experiment: Neutral red CPE inhibition assay, Zika MR766 in Huh-7; type: cell-based; conditions: Huh-7, read-out: EC50 (inhibition of virus-induced CPE)
[18] = mice, 1,000 mg/kg loading then 500 mg/kg BID for 3 days, oral
DENV2 (clinical isolate) [19] = experiment: DENV2 clinical isolate CPE inhibition in human PBMCs (MTT); type: cell-based, dengue virus
Adenovirus = experiment: Antiviral specificity panel, Adenovirus in Vero; type: cell-based; conditions: unidentified adenovirus, Adenovirus (DNA), read-out: EC50 (inhibit viral replication 50%)
flaviviruses [20] = experiment: microbe, parasite or virus in culture
Dengue-2 New Guinea C [21] = experiment: Neutral red CPE inhibition assay, Dengue-2 New Guinea C in Huh-7; type: cell-based; conditions: Dengue virus, Huh-7, neutral red assay, read-out: EC50 (inhibition of virus-induced CPE)
Powassan virus Spooner [22] = experiment: microbe, parasite or virus in culture; type: cell-based; conditions: BHK-21, read-out: EC90 (reduce virus yield by 1 log10) (converted)
HCV = experiment: Antiviral specificity panel, HCV in Huh-7; type: cell-based, hepatitis C virus
[23] = tested on: Respiratory syncytial virus; experiment: Antiviral specificity panel, respiratory syncytial virus in HEp2; type: cell-based; conditions: human respiratory syncytial virus, HEp-2, Respiratory syncytial virus (RNA), read-out: EC50 (inhibit viral replication 50%)
Powassan virus Spooner [24] = experiment: microbe, parasite or virus in culture; type: cell-based; conditions: BHK-21, read-out: EC50 (inhibition of virus-induced CPE)
[25] = tested on: West Nile virus Kern 515, WNo2; experiment: microbe, parasite or virus in culture; type: cell-based; conditions: West Nile Kern 515, WNo2, Huh-7, VYR assay, read-out: EC90 (reduce virus yield by 1 log10) (converted)
Herpes simplex-1 = experiment: Antiviral specificity panel, Herpes simplex-1 in Vero; type: cell-based; conditions: Herpes simplex-1 (DNA), read-out: EC50 (inhibit viral replication 50%)
in vitro [26] = conditions: dog
DENV2 (clinical isolate) [27] = experiment: DENV2 clinical isolate CPE inhibition in BHK-21 cells (MTT); type: cell-based, dengue virus
[28] = tested on: Japanese encephalitis virus SA-14; experiment: Neutral red CPE inhibition assay, Japanese encephalitis SA-14 in Huh-7; type: cell-based; conditions: Japanese encephalitis SA-14, Huh-7, neutral red assay, read-out: EC50 (inhibition of virus-induced CPE)
Powassan virus LB [29] = experiment: microbe, parasite or virus in culture; type: cell-based; conditions: BHK-21, read-out: EC50 (inhibition of virus-induced CPE)
BHK-21 cells = conditions: hamster

For `CNc1nc(N)nc2c1ncn2[C@@H]1O[C@H](CO[P@](=O)(N[C@@H](C)C(=O)OC(C)C)Oc2ccccc2)[C@@H](O)[C@@]1(C)F` [AT-281], the EC90 (Dengue-2 New Guinea C [1]) was 0.64 µM, the EC90 (Usutu virus TC-508 [2]) was 0.72 µM and the “plasma concentration at 1 h” value [3] was “below the limit of quantitation”. For the same molecule, the EC90 [4] was 0.26 µM, the CC50 (in vitro [5]) was 85 to 170 µM and the EC50 (Dengue-3 H87) was 0.77 µM. For the same molecule, the EC50 [6] was 0.31 µM, the CC50 at 3 days [7] was greater than 170 µM and the EC50 (Rhinovirus) was greater than 100 µM. It also gave a CC50 at 3 days [8] greater than 100 µM, an EC50 (Rift Valley fever virus) greater than 100 µM and an EC50 (Usutu virus TC-508 [9]) of 0.19 µM. It also gave an EC50 [10] of 1.41 µM, an AUC(0-t) (in vivo [11]) of 9.5 ± 3.7 µM·h and a Cmax (in vivo [11]) of 3.7 ± 1.5 µM. For the same molecule, the Tmax (in vivo [11]) was 60 min, the EC50 (HIV-1) was greater than 100 µM and the EC90 (Powassan virus LB [12]) was 2.6 µM. The EC50 (Influenza A and B) was greater than 100 µM, the EC50 [13] was 10.2 µM and the “time present in plasma” value [14] was “more than 4 h”. The EC50 (Chikungunya virus) was 54.2 µM, the “SI (CC50/EC50)” value (flaviviruses [15]) was greater than 210 and the cytotoxicity (flaviviruses [15]) was “Little to no cytotoxicity”. It also gave a CC50 (in vitro [16]) greater than 100 µM, an AUC(0-t) (in vivo [17]) of 4.2 ± 0.5 µM·h and a Cmax (in vivo [17]) of 2.6 ± 0.3 µM. For the same molecule, the Tmax (in vivo [17]) was 48 ± 18 min, the EC50 (Zika virus MR766) was 0.64 µM and the “tolerability (adverse clinical signs)” value [18] was “well tolerated”. The EC50 (DENV2 (clinical isolate) [19]; Dengue virus, DENV2, PBMC, read-out: EC50 (inhibition of virus-induced CPE), Dengue-2 clinical isolate, human PBMC) was 0.6 µM, the EC50 (DENV2 (clinical isolate) [19]; read-out: EC50 (inhibition of virus-induced CPE), Dengue-2 clinical isolate, human PBMC) was 0.8 µM and the EC50 (Adenovirus) was greater than 100 µM. The EC50 (flaviviruses [20]; Dengue virus, DENV2 / DENV3, read-out: EC50 values, all other flaviviruses tested) was 0.19 to 1.41 µM, the EC50 (flaviviruses [20]; Orthoflavivirus, in Homo sapiens, 144 h, read-out: EC50 of the virus-induced cytopathic effect (CPE), range over Table 1) was 0.21 to 1.41 µM and the EC50 (Dengue-2 New Guinea C [21]) was 0.48 µM. The EC90 (Powassan virus Spooner [22]) was 0.74 µM, the “selectivity toward HCV” value (HCV) was > 2,000 and the EC50 (HCV; Hepatitis C virus, HCV (RNA), read-out: EC50 (inhibit viral replication 50%)) was 0.05 µM. For the same molecule, the EC50 [23] was greater than 100 µM, the EC50 (Powassan virus Spooner [24]) was 0.29 µM and the EC90 [25] was 0.43 µM. It also gave an EC50 (Herpes simplex-1) greater than 100 µM, a CC50 (in vitro [26]) greater than 100 µM and an EC50 (DENV2 (clinical isolate) [27]; Dengue virus, DENV2, BHK-21, read-out: EC50 (inhibition of virus-induced CPE), Dengue-2 clinical isolate, BHK-21) of 0.63 µM. It also gave an EC50 (DENV2 (clinical isolate) [27]; read-out: EC50 (inhibition of virus-induced CPE), Dengue-2 clinical isolate, BHK-21) of 1.1 µM, an EC50 [28] of 0.21 µM and an EC50 (Powassan virus LB [29]) of 0.64 µM. For the same molecule, the CC50 (BHK-21 cells) was greater than 170 µM.
